In data set [1] the test system is Caco-2/HT29-MTX partially laminated model.
Protocol: In the short-term culture model, Caco-2 monolayers were prepared according to the protocol of the Corning® BioCoat^TM Intestinal Epithelial Cell Environment Kit (Corning Inc., Corning, NY, USA) with slight modifications with reference to the procedure reported by Yamashita et al. [20]. Briefly, Caco-2 cells were seeded at a density of 1 × 10^5 cells/insert onto 24-well Transwell® inserts (0.4 μm pore size, Corning Inc.) using a basal seeding medium. After 24 h of incubation (37 °C, 5% CO2), the basal seeding medium was replaced with the enterocyte differential medium. After an additional 72 h of incubation, a cell monolayer was formed, and the integrity was evaluated via TEER using an epithelial volt-ohmmeter (EVOM2, World Precision Instruments Inc., Sarasota, FL, USA). In the long-term culture model, Caco-2 cells were seeded at a density of 1 × 10^4 cells/insert onto 24-well Transwell® inserts using DMEM containing 10% FBS, 1% nonessential amino acids, and 1% penicillin-streptomycin for 21 days.
(§1) When preparing the partially laminated model, a Caco-2 monolayer with a TEER value ≥ 2000 Ω·cm^2 was formed first, and HT29-MTX cells were then laminated onto the Caco-2 monolayer at ratios of 1:9, 3:7, and 5:5, followed by incubation for the predetermined time. As for the coculture model, Caco-2 and HT29-MTX cells were seeded simultaneously in the different ratios and incubated for the predetermined time to form a hybrid monolayer.
(§2) Briefly, the culture medium on both sides of the Transwell® insert was replaced with HBSS and washed twice with prewarmed HBSS. […] The Papp coefficients of the model drugs were calculated using the following equation [19, 21]:(1) Papp=dQ/dt×1/A.C0 where dQ/dt is the velocity of solutes transported across the culture cell sheet in time, C0 is the concentration of the solute in the apical compartment at time zero, and A is the cross-sectional area of the cell sheet in contact with the apical solution.
The supernatant was collected as a sample for LC-MS/MS. […]
In data set [2] the test system is Caco-2/HT29-MTX coculture model.
Protocol: as §1, §2
A further data set concerns HT29-MTX-E12 cells. Also noted: method as in PMID 23869232. The settings on record: added during the first six days of semi-wet interface with mechanical stimulation; 28 days of incubation; without addition 3–5 μm; cited from earlier work.

The source of these data is article PMC10535880, “Caco-2 Cell Sheet Partially Laminated with HT29-MTX Cells as a Novel In Vitro Model of Gut Epithelium Drug Permeability” (Pharmaceutics, 2023).

Where two headings read alike, the source gives them in different places.

With Lucifer yellow, the “Papp compared to that in the Caco-2 monolayer” value is 1.5 times in data set [1] (5:5 ratio of Caco-2/HT29-MTX), 1.5 times in data set [1] (7:3 ratio of Caco-2/HT29-MTX) and “similar” in data set [1] (9:1 ratio of Caco-2/HT29-MTX). Moreover, the “Papp compared to that in the Caco-2 monolayer model” value in data set [2] is “significantly higher”. The “Papp compared to that of the HT29-MTX monolayer” value in data set [2] (independent of the Caco-2:HT29-MTX ratio) was “similar”.
As for `C[C@H](NC(=O)Cc1cc(F)cc(F)c1)C(=O)NC(C(=O)OC(C)(C)C)c1ccccc1` (stereo partly drawn) [N-[(3,5-difluorophenyl)acetyl]-L-alanyl-2-phenyl]glycine-1,1-dimethylethyl ester], in the data set on HT29-MTX-E12 cells, the mucus layer thickness is 25–30 μm.
